As usually defined, the Ki is a measure of affinity in units of concentration, obtained from inhibition or displacement. Low values mean higher affinity, high ones lower affinity. The IC50 is the point on the concentration scale where inhibition reaches its midpoint.

The source of these data is ChEMBL document CHEMBL1145125, “Simple, intuitive calculations of free energy of binding for protein-ligand complexes. 2. Computational titration and pH effects in molecular models of neuraminidase-inhibitor complexes” (J Med Chem, 2003).

The nature of this assay: In vitro inhibitory activity against neuraminidase. Also noted: species or system unidentified influenza virus.

Compound `CC(=O)N[C@H]1[C@H]([C@H](O)[C@H](O)CN)OC(C(=O)O)=C[C@@H]1O` returned a Ki of 400 µM.

Take `CC(=O)Nc1c(O)cc(C(=O)O)cc1[N+](=O)[O-]`: 750 µM corresponded to half-maximal inhibition (IC50).

For the compound `CC(=O)Nc1c(N)cc(C(=O)O)cc1O`, the IC50 was greater than 10 µM. Take `CC(=O)N[C@H]1[C@H]([C@H](O)[C@H](O)CO)OC(C(=O)O)=C[C@@H]1N`: affinity was put at a Ki of 0.04 µM. The compound `CC(=O)Nc1ccc(C(=O)O)cc1N` registered an IC50 greater than 10 µM. `CCCN(CCc1ccccc1)C(=O)[C@@H]1OC(C(=O)O)=C[C@H](N)[C@H]1NC(C)=O` came in with a concentration for half-maximal inhibition (IC50) of 3.6 µM. This counts as single-digit micromolar.

As to `CC(=O)N[C@H]1[C@H]([C@H](O)[C@H](O)CN)OC(C(=O)O)=C[C@@H]1N`, the affinity corresponds to a Ki of 15 µM. Same read-out and setting: in the case of `CC(=O)N[C@H]1[C@H]([C@H](O)[C@H](O)CO)OC(C(=O)O)=C[C@@H]1O` [NEU5AC2EN] it was 4 µM.
